Laboratory results taken from the NIST ThermoML archive (doi:10.1016/j.fluid.2008.11.013).
± gives the expanded uncertainty stated by the source.

Assays:
[1] = excess molar enthalpy (molar enthalpy of mixing); xn = mol fraction of the nth substance listed; details: 363.15 K, Liquid, Flow calorimetry
[2] = activity coefficient (dimensionless); of the first substance listed, at infinite dilution; xn = mol fraction of the nth substance listed; details: Liquid, Chromatography, x1 = 0

## CCCCCC[N+]1(C)CCCC1.O=S(=O)([N-]S(=O)(=O)C(F)(F)F)C(F)(F)F + CCCCCC
[1]; 1720 kPa, x2 = 0.067
  excess molar enthalpy: 0.0295 ± 0.000717 kcal/mol
[1]; 1720 kPa, x2 = 0.1285
  excess molar enthalpy: 0.0574 ± 0.00129 kcal/mol
[1]; 1720 kPa, x2 = 0.1852
  excess molar enthalpy: 0.0807 ± 0.00177 kcal/mol
[1]; 1720 kPa, x2 = 0.2375
  excess molar enthalpy: 0.1 ± 0.0022 kcal/mol
[1]; 1720 kPa, x2 = 0.2859
  excess molar enthalpy: 0.114 ± 0.00239 kcal/mol
[1]; 1720 kPa, x2 = 0.3309
  excess molar enthalpy: 0.116 ± 0.00263 kcal/mol
[1]; 1720 kPa, x2 = 0.483
  excess molar enthalpy: 0.0924 ± 0.00203 kcal/mol
[1]; 1720 kPa, x2 = 0.6514
  excess molar enthalpy: 0.0629 ± 0.00141 kcal/mol

## CCCCCC [hexane] + CCCCCCCC[N+]1(C)CCCC1.O=S(=O)([N-]S(=O)(=O)C(F)(F)F)C(F)(F)F
[2]; 303.16 K
  activity coefficient: 5.24 ± 0.24
[2]; 313.13 K
  activity coefficient: 5.05 ± 0.23
[2]; 323.17 K
  activity coefficient: 4.9 ± 0.22
[2]; 333.19 K
  activity coefficient: 4.8 ± 0.22

## C=CCCCC [hex-1-ene] + CCCCCC[N+]1(C)CCCC1.O=S(=O)([N-]S(=O)(=O)C(F)(F)F)C(F)(F)F
[2]; 303.16 K
  activity coefficient: 4.77 ± 0.22
[2]; 313.17 K
  activity coefficient: 4.63 ± 0.21
[2]; 323.15 K
  activity coefficient: 4.55 ± 0.21
[2]; 333.15 K
  activity coefficient: 4.45 ± 0.2

## CCCCCCC [heptane] + CCCCCC[N+]1(C)CCCC1.O=S(=O)([N-]S(=O)(=O)C(F)(F)F)C(F)(F)F
[2]; 303.16 K
  activity coefficient: 11.4 ± 0.52
[2]; 313.16 K
  activity coefficient: 10.8 ± 0.49
[2]; 323.15 K
  activity coefficient: 10.3 ± 0.47
[2]; 333.12 K
  activity coefficient: 9.89 ± 0.45

## C=CCCCCCCCC [1-decene] + CCCCCC[N+]1(C)CCCC1.O=S(=O)([N-]S(=O)(=O)C(F)(F)F)C(F)(F)F
[2]; 303.16 K
  activity coefficient: 18.8 ± 0.87
[2]; 313.15 K
  activity coefficient: 18 ± 0.83
[2]; 323.15 K
  activity coefficient: 17.3 ± 0.8
[2]; 333.16 K
  activity coefficient: 16.9 ± 0.78

## C=CCCCCC [1-heptene] + CCCCCCCC[N+]1(C)CCCC1.O=S(=O)([N-]S(=O)(=O)C(F)(F)F)C(F)(F)F
[2]; 313.11 K
  activity coefficient: 4.37 ± 0.2
[2]; 323.14 K
  activity coefficient: 4.22 ± 0.19
[2]; 333.17 K
  activity coefficient: 4.1 ± 0.19
[2]; 343.21 K
  activity coefficient: 4.02 ± 0.18

## CCCCCCCCCC [decane] + CCCCCC[N+]1(C)CCCC1.O=S(=O)([N-]S(=O)(=O)C(F)(F)F)C(F)(F)F
[2]; 303.13 K
  activity coefficient: 28.1 ± 1.3
[2]; 313.17 K
  activity coefficient: 27 ± 1.2
[2]; 323.16 K
  activity coefficient: 25.1 ± 1.2
[2]; 333.16 K
  activity coefficient: 24.3 ± 1.1
[2]; 343.13 K
  activity coefficient: 23 ± 1.1

## CCCCCCC [heptane] + CCCCCCCC[N+]1(C)CCCC1.O=S(=O)([N-]S(=O)(=O)C(F)(F)F)C(F)(F)F
[2]; 303.1 K
  activity coefficient: 6.9 ± 0.32
[2]; 313.15 K
  activity coefficient: 6.73 ± 0.31
[2]; 323.09 K
  activity coefficient: 6.54 ± 0.3
[2]; 333.13 K
  activity coefficient: 6.36 ± 0.29

## CCCCCCCC [octane] + CCCCCC[N+]1(C)CCCC1.O=S(=O)([N-]S(=O)(=O)C(F)(F)F)C(F)(F)F
[2]; 303.16 K
  activity coefficient: 15.8 ± 0.73
[2]; 313.16 K
  activity coefficient: 14.7 ± 0.68
[2]; 323.15 K
  activity coefficient: 13.9 ± 0.64
[2]; 333.12 K
  activity coefficient: 13.3 ± 0.61

## CCCCCC [hexane] + CCCCCC[N+]1(C)CCCC1.O=S(=O)([N-]S(=O)(=O)C(F)(F)F)C(F)(F)F
[2]; 303.15 K
  activity coefficient: 8.4 ± 0.39
[2]; 313.19 K
  activity coefficient: 7.85 ± 0.36
[2]; 323.16 K
  activity coefficient: 7.21 ± 0.33
[2]; 333.14 K
  activity coefficient: 6.57 ± 0.3

## C=CCCCCCC [oct-1-ene] + CCCCCCCC[N+]1(C)CCCC1.O=S(=O)([N-]S(=O)(=O)C(F)(F)F)C(F)(F)F
[2]; 313.11 K
  activity coefficient: 5.53 ± 0.25
[2]; 323.14 K
  activity coefficient: 5.4 ± 0.25
[2]; 333.17 K
  activity coefficient: 5.27 ± 0.24
[2]; 343.21 K
  activity coefficient: 5.21 ± 0.24

## CCCC[N+]1(C)CCCC1.O=S(=O)([N-]S(=O)(=O)C(F)(F)F)C(F)(F)F + C=CCCCC
[1]; 2239 kPa, x2 = 0.0587
  excess molar enthalpy: 0.0332 ± 0.000789 kcal/mol
[1]; 2239 kPa, x2 = 0.1135
  excess molar enthalpy: 0.064 ± 0.00143 kcal/mol
[1]; 2239 kPa, x2 = 0.1647
  excess molar enthalpy: 0.0835 ± 0.00184 kcal/mol
[1]; 2239 kPa, x2 = 0.2579
  excess molar enthalpy: 0.104 ± 0.00227 kcal/mol
[1]; 2239 kPa, x2 = 0.3781
  excess molar enthalpy: 0.11 ± 0.00239 kcal/mol
[1]; 2239 kPa, x2 = 0.4477
  excess molar enthalpy: 0.0987 ± 0.00215 kcal/mol
[1]; 2239 kPa, x2 = 0.5104
  excess molar enthalpy: 0.0864 ± 0.00189 kcal/mol
[1]; 2239 kPa, x2 = 0.6185
  excess molar enthalpy: 0.0666 ± 0.00148 kcal/mol
[1]; 2239 kPa, x2 = 0.7086
  excess molar enthalpy: 0.0533 ± 0.0012 kcal/mol
[1]; 2239 kPa, x2 = 0.7849
  excess molar enthalpy: 0.0399 ± 0.000908 kcal/mol
[1]; 2239 kPa, x2 = 0.8795
  excess molar enthalpy: 0.0203 ± 0.000502 kcal/mol
